Data as given in patent publication US12396459B2, “Synergistically effective herbicide composition comprising pyridate and at least one defined 4-HPPD inhibitor” (BELCHIM CROP PROTECTION NV, priority 2018, dated 2025).

What was measured:
Format in all cases: in vivo
Papaver rhoeas = assay: Field trial post-emergence in maize: PAPRH; details: # = 1, g a.c./ha: PYR 300, MES 100, PYR + MES 300 + 90
Method: (§1) Herbicidal activity of herbicide compositions according to the first aspect of the present invention with regard to different types of unwanted vegetation was determined during trials performed on test fields (field trials). Individual compositions comprising pyridate and individual compositions comprising a defined 4-HPPD inhibitor are compared with a herbicide composition according to the invention comprising both pyridate and a defined 4-HPPD inhibitor. The expected activity of the combination of the active compounds pyridate and a defined 4-HPPD inhibitor is calculated according to above mentioned calculation method by Colby, in order to evaluate a synergistic effect between pyridate and a defined 4-HPPD inhibitor.
(§2) Herbicidal activity was determined by applying herbicide compositions on emerged unwanted vegetation on fields where maize was cultivated. Pyridate and a defined 4-HPPD inhibitor were applied as a tank mixture by mixing these active compounds prior to use in a spray tank. The corresponding mixture was in the form of a spray liquor. Besides, spray liquors of individual compositions comprising pyridate and of individual compositions comprising a defined 4-HPPD inhibitor were used. Test plants of unwanted vegetation with a growth stage corresponding to BBCH 10-18 (according to the extended BBCH-scale) were sprayed with the active compound preparations such that particular desired amounts of active compounds are applied per unit area. Spray liquor was diluted with water to arrive at an application volume of 50 to 450 L/ha. At a specified number of days after application (DAA), the degree of damage to the unwanted vegetation is rated in % of plants of unwanted vegetation that were killed, which was assessed by visually controlling the plants.

Capsella bursa-pastoris = assay: Field trial post-emergence in maize: CAPBP
Method: as §1, §2

Abutilon theophrasti = assay: Field trial post-emergence in maize: ABUTH; details: 31-48 DAA; # = 2; g a.c./ha: PYR 300, MES 100, PYR + MES 300 + 90
Method: as §1
(§3) Herbicidal activity was determined by applying herbicide compositions on emerged unwanted vegetation on fields where maize was cultivated. Pyridate and a defined 4-HPPD inhibitor were applied as a tank mixture by mixing these active compounds prior to use in a spray tank. The corresponding mixture was in the form of a spray liquor. […] At a specified number of days after application (DAA), the degree of damage to the unwanted vegetation is rated in % of plants of unwanted vegetation that were killed, which was assessed by visually controlling the plants.

Datura stramonium = assay: Field trial post-emergence in maize: DATST; details: 7-14 DAA; # = 2; g a.c./ha: PYR 300, MES 100, PYR + MES 300 + 90
Method: as §1, §3

Persicaria maculosa = assay: Field trial post-emergence in maize: POLPE; details: for herbicidal effect (h.e.): g a.c./ha: PYR 300, MES 100, PYR + MES 300 + 90
Method: as §1, §2

Echinochloa crus-galli = assay: Examples 6-8 herbicidal effect: ECHCG; details: 7 DAA
[1] = tested on: Tripleurospermum inodorum; assay: Field trial post-emergence in maize: MATIN; details: for herbicidal effect (h.e.): # = 1, g a.c./ha: PYR 300, MES 100, PYR + MES 300 + 90
Method: as §1, §2

Brassica napus (winter) = assay: Field trial post-emergence in maize: BRSNW; details: # = 1, g a.c./ha: PYR 300, MES 100, PYR + MES 300 + 90
Method: as §1, §2

Amaranthus retroflexus = assay: Field trial post-emergence in maize: AMARE; details: 13-14 DAA, # = 1
Method: as §1, §2

Solanum nigrum = assay: Examples 6-8 herbicidal effect: SOLNI; details: 7 DAA
Atriplex patula = assay: Field trial post-emergence in maize: ATXPA
Method: as §1, §2
(§4) Example 1 concerns a herbicide composition comprising a combination of pyridate and mesotrione, which was applied post-emergence on unwanted vegetation on a field where maize was cultivated, according to the test conditions mentioned above.

Sorghum halepense = assay: Field trial post-emergence in maize: SORHA; details: 7-14 DAA; # = 1; g a.c./ha: PYR 300, MES 100, PYR + MES 300 + 90
Method: as §1, §3

Chenopodium album = assay: Examples 6-8 herbicidal effect: CHEAL; details: 7 DAA
Setaria verticillata = assay: Field trial post-emergence in maize: SETVE
Method: as §1, §2, §4

Brassica napus = assay: Field trial post-emergence in maize: BRSNN; details: # = 1, g a.c./ha: PYR 300, MES 100, PYR + MES 300 + 90
Method: as §1, §2

Sonchus oleraceus = assay: Field trial post-emergence in maize: SONOL; details: # = 1, g a.c./ha: PYR 300, MES 100, PYR + MES 300 + 90
Method: as §1, §2

Rumex obtusifolius = assay: Field trial post-emergence in maize: RUMOB
Method: as §1, §2, §4

Convolvulus arvensis = assay: Field trial post-emergence in maize: CONAR
Method: as §1, §2, §4

Hibiscus ternatus = assay: Field trial post-emergence in maize: HIBTR; details: 7-14 DAA; # = 2; g a.c./ha: PYR 300, MES 100, PYR + MES 300 + 90
Method: as §1, §3

Anagallis arvensis = assay: Field trial post-emergence in maize: ANGAR; details: 7-14 DAA; # = 2; g a.c./ha: PYR 300, MES 100, PYR + MES 300 + 90
Method: as §1, §3

Portulaca oleracea = assay: Field trial post-emergence in maize: POROL; details: # = 1, g a.c./ha: PYR 300, MES 100, PYR + MES 300 + 90
Method: as §1, §2

[2] = g a.c./ha: PYR 10, TEM 22, PYR + TEM 10 + 100
[3] = g a.c./ha: PYR 300, PYR + MES 300 + 80
[4] = g a.c./ha: PYR 300, SCT 300, PYR + SCT 300 + 300
[5] = g a.c./ha: PYR 300, TEM 100, PYR + TEM 300 + 100
[6] = g a.c./ha: PYR 450, SCT 450, PYR + SCT 300 + 450
[7] = g a.c./ha: PYR 600, PYR + SCT 600 + 300
[8] = g a.c./ha: PYR 900, TEM 44, PYR + TEM 900 + 44

CCCCCCCCSC(=O)Oc1cc(Cl)nnc1-c1ccccc1 [PYR, (6-chloro-3-phenylpyridazin-4-yl) octylsulfanylformate]
herbicidal effect (h.e.) (Papaver rhoeas; 18-28 DAA): 3% | herbicidal effect (h.e.) (Papaver rhoeas; 31-48 DAA): 3% | herbicidal effect (h.e.) (Capsella bursa-pastoris; 7-14 DAA, # = 3, g a.c./ha: PYR 300, MES 100, PYR + MES 300 + 90): 51% | PYR h.e. (Capsella bursa-pastoris; CAPBP 14-20 DAA 300 g a.c./ha): 59% | PYR h.e. (Capsella bursa-pastoris; CAPBP 14-20 DAA 600 g a.c./ha): 65% | PYR h.e. (Capsella bursa-pastoris; CAPBP 14-20 DAA 900 g a.c./ha): 73% | PYR h.e. (Capsella bursa-pastoris; CAPBP 24-31 DAA 300 g a.c./ha): 53% | PYR h.e. (Capsella bursa-pastoris; CAPBP 24-31 DAA 600 g a.c./ha): 61% | PYR h.e. (Capsella bursa-pastoris; CAPBP 24-31 DAA 900 g a.c./ha): 73% | herbicidal effect (h.e.) (Abutilon theophrasti): 73% | herbicidal effect (h.e.) (Datura stramonium): 70% | herbicidal effect (h.e.) (Persicaria maculosa; 7-14 DAA, # = 3): 42% | herbicidal effect (h.e.) (Persicaria maculosa; 31-48 DAA, # = 4): 32% | PYR h.e. (Persicaria maculosa; POLPE 14-20 DAA 300 g a.c./ha): 15% | PYR h.e. (Persicaria maculosa; POLPE 14-20 DAA 600 g a.c./ha): 23% | PYR h.e. (Persicaria maculosa; POLPE 14-20 DAA 900 g a.c./ha): 28% | PYR h.e. (Persicaria maculosa; POLPE 24-31 DAA 300 g a.c./ha): 17% | PYR h.e. (Persicaria maculosa; POLPE 24-31 DAA 600 g a.c./ha): 33% | PYR h.e. (Persicaria maculosa; POLPE 24-31 DAA 900 g a.c./ha): 32% | herbicidal effect (h.e.) (Echinochloa crus-galli; [2]): 0% | herbicidal effect (h.e.) (Echinochloa crus-galli; [3]): 0% | herbicidal effect (h.e.) (Echinochloa crus-galli; [4]): 0% | herbicidal effect (h.e.) (Echinochloa crus-galli; [5]): 0% | herbicidal effect (h.e.) (Echinochloa crus-galli; [6]): 0% | herbicidal effect (h.e.) (Echinochloa crus-galli; [7]): 0% | herbicidal effect (h.e.) (Echinochloa crus-galli; [8]): 5% | herbicidal effect (h.e.) ([1]; 7-14 DAA): 3% | herbicidal effect (h.e.) ([1]; 18-28 DAA): 5% | herbicidal effect (h.e.) ([1]; 31-48 DAA): 5% | PYR h.e. ([1]; MATIN 24-31 DAA 300 g a.c./ha): 75% | PYR h.e. ([1]; MATIN 24-31 DAA 600 g a.c./ha): 60% | PYR h.e. ([1]; MATIN 24-31 DAA 900 g a.c./ha): 55% | herbicidal effect (h.e.) (Brassica napus (winter); 7-14 DAA): 5% | herbicidal effect (h.e.) (Brassica napus (winter); 18-28 DAA): 5% | herbicidal effect (h.e.) (Amaranthus retroflexus; g a.c./ha: PYR 450, MES 144, PYR + MES 450 + 144): 72% | herbicidal effect (h.e.) (Amaranthus retroflexus; g a.c./ha: PYR 450, TOP 12.4, PYR + TOP 450 + 12.4): 72% | herbicidal effect (h.e.) (Solanum nigrum; [2]): 0% | herbicidal effect (h.e.) (Solanum nigrum; [3]): 11% | herbicidal effect (h.e.) (Solanum nigrum; [4]): 10% | herbicidal effect (h.e.) (Solanum nigrum; [5]): 10% | herbicidal effect (h.e.) (Solanum nigrum; [6]): 10% | herbicidal effect (h.e.) (Solanum nigrum; [7]): 28% | herbicidal effect (h.e.) (Solanum nigrum; [8]): 100% | PYR h.e. (Atriplex patula; ATXPA 24-31 DAA 300 g a.c./ha): 43% | PYR h.e. (Atriplex patula; ATXPA 24-31 DAA 600 g a.c./ha): 49% | herbicidal effect (h.e.) (Sorghum halepense): 58% | herbicidal effect (h.e.) (Chenopodium album; [2]): 0% | herbicidal effect (h.e.) (Chenopodium album; [3]): 6% | herbicidal effect (h.e.) (Chenopodium album; [4]): 3% | herbicidal effect (h.e.) (Chenopodium album; [5]): 5% | herbicidal effect (h.e.) (Chenopodium album; [6]): 10% | herbicidal effect (h.e.) (Chenopodium album; [7]): 22% | herbicidal effect (h.e.) (Chenopodium album; [8]): 90% | PYR h.e. (Setaria verticillata; SETVE 14-20 DAA 300 g a.c./ha): 29% | PYR h.e. (Setaria verticillata; SETVE 14-20 DAA 600 g a.c./ha): 47% | PYR h.e. (Setaria verticillata; SETVE 14-20 DAA 900 g a.c./ha): 75% | PYR h.e. (Setaria verticillata; SETVE 24-31 DAA 300 g a.c./ha): 29% | PYR h.e. (Setaria verticillata; SETVE 24-31 DAA 600 g a.c./ha): 33% | PYR h.e. (Setaria verticillata; SETVE 24-31 DAA 900 g a.c./ha): 60% | herbicidal effect (h.e.) (Brassica napus; 7-14 DAA): 50% | herbicidal effect (h.e.) (Brassica napus; 18-28 DAA): 11% | herbicidal effect (h.e.) (Brassica napus; 31-48 DAA): 6% | herbicidal effect (h.e.) (Sonchus oleraceus; 7-14 DAA): 93% | herbicidal effect (h.e.) (Sonchus oleraceus; 18-28 DAA): 51% | herbicidal effect (h.e.) (Sonchus oleraceus; 31-48 DAA): 37% | PYR h.e. (Rumex obtusifolius; RUMOB 14-20 DAA 300 g a.c./ha): 20% | PYR h.e. (Rumex obtusifolius; RUMOB 14-20 DAA 600 g a.c./ha): 30% | PYR h.e. (Rumex obtusifolius; RUMOB 14-20 DAA 900 g a.c./ha): 55% | PYR h.e. (Convolvulus arvensis; CONAR 14-20 DAA 300 g a.c./ha): 35% | PYR h.e. (Convolvulus arvensis; CONAR 14-20 DAA 600 g a.c./ha): 40% | PYR h.e. (Convolvulus arvensis; CONAR 14-20 DAA 900 g a.c./ha): 45% | PYR h.e. (Convolvulus arvensis; CONAR 24-31 DAA 600 g a.c./ha): 48% | PYR h.e. (Convolvulus arvensis; CONAR 24-31 DAA 900 g a.c./ha): 45% | herbicidal effect (h.e.) (Hibiscus ternatus): 36% | herbicidal effect (h.e.) (Anagallis arvensis): 6% | herbicidal effect (h.e.) (Portulaca oleracea; 7-14 DAA): 30% | herbicidal effect (h.e.) (Portulaca oleracea; 18-28 DAA): 11%
